Data taken from patent US4440757A, “Pharmaceutical composition comprising derivative of aminobenzoic acid for regulating prostaglandin” (priority 1978, dated 1984).

What was measured:
[1] = test system: Salmonella typhimurium TA 100; assay: Mutagenicity, reversion assay, TA 100; format: cell-based; conditions: 5,000 μg/plate; control 149
Description: (§1) (ii) The strains TA 98 and TA 100 (both are histidine requiring) of Salmonella typhimurium were used in the reversion assay.
(§2) Into 2 ml of a soft agar culture medium (the medium itself contains 6 g of sodium chloride and 6 g of agar in 1000 ml of distilled water) to which one tenth by volume of an aqueous solution of 0.5 mM of biotin and 0.5 mM of histidine had been added, 0.1 ml of the bacterial suspension and 0.1 ml of an aqueous solution of the present substance were admixed and the mixture was layered on the minimum agar culture medium. After 2 days of incubation at 37° C., the number of revertant colonies was counted. Furylfuramide (AF-2) was used as the positive control.

thoracic aorta, PGI2 = assay: PGI2 production in arterial tissue of diabetic rats; format: in vivo, male Sprague-Dowley rats; conditions: 100 mg/kg p.o., diabetic rat; not administered 0.07, normal 0.26
Description: (§3) Groups of male Sprague-Dowley rats of body weight of about 200 g are used for the present experiments. Some groups of the rats were intravenously administered with streptozotocin at 80 mg/kg one to three months in advance of the beginning of the present experiment to be in a state of diabetes mellitus. Those rats of the same strain, the same sex and the same age without being administered with streptozotocin were used as control.
(§4) The present substances (Specimens Nos. 4, 7 and 8) were respectively administered to the groups of rats suffering from the artificial diabetes mellitus forcibly by oral route at a rate of 100 mg/kg as an aqueous solution in distilled water.
In the next place, the amount of prostaglandin I2 produced in the arterial tissue was measured as follows:
Thoracic aorta of the rat was rapidly extirpated, washed with Krebs' buffer solution at a temperature of 4° C. and cut into thin rings of 1 to 2 mg in weight. Then, into 200 microliters of Krebs' buffer solution, 60 mg of the thus cut aorta were added and the mixture was incubated for 3 min at 22° C.
The amount of prostaglandin I2 (PGI2) produced by the cut aorta was determined on the supernatant liquid (1 to 10 microliters) of the above-mentioned incubated culture in the same manner as in Example 2 using the suppressing action of platelet aggregation as an index, however, using adenosine diphosphate as the agglutinating agent. After preparing a standard calibration curve using an authentic specimen of PGI2, the content of PGI2 of the above-mentioned supernatant liquid was obtained from the standard curve in ng/mg of wet weight of the arterial tissue.

[2] = test system: streptozotocin diabetic rats; assay: Blood sugar of diabetic rats; format: in vivo, male Sprague-Dowley rats; conditions: 100 mg/kg p.o., 6 hours, diabetic rat; not administered 412.1, normal 76.7
Description: as §3, §4
After 6 hours of the administration of the present substance, blood specimen was collected from the rat under anesthesia by ether in an amount of 0.5 ml/animal, and the content of blood sugar was measured by the enzymatic method.

male Sprague-Dowley rats [3] = assay: Leakage of dye-staff after skin stimulation with histamine and PGE1; format: in vivo; conditions: 1000 mg/kg p.o.; with histamine + PGE1
Description: To the three groups of male Sprague-Dowley rats of the total six groups, the respective present substances (Specimens Nos. 4, 7 and 8) were forcibly administered by oral route at the rate of 1000 mg/kg, the other three groups being administered nothing at this time. After 60 min of the administration, a mixture of PGE1 (2.5×10^-11 mol/animal) and histamine (2×10^-8 mol/animal) was intracutaneously injected under light […] into the shaved skin of an abdominal part of four groups of the rats including three groups administered with the present substance.

[4] = test system: cervical aorta of an SD rat, PGI2; assay: PGI2 production by cuttings of cervical aorta; format: cell-based; conditions: 50 microliters of 2% solution into 500 microliters, 10 min
Description: After extirpating the cervical aorta of an SD rat under anesthsia, it was washed with Krebs-Linger bicarbonate buffer solution and cut into thin rings, and the cutings were kept in the above-mentioned buffer solution at a rate of 1 mg of wet cuttings per 0.5 ml to produce PGI2.
Into 500 microliters of the thus prepared mixture, 50 micro-liters of an aqueous physiological saline solution containing 2% by weight of the present substance (each of Specimens Nos. 4, 7 and 8) dissolved therein were added and, since the production of PGI2 generally attains to its maximum after 10 min of keeping, a supernatant liquid (2.5 μl) of the mixture was prepared after 10 min of the addition, and then the amount of PGI2 in the supernatant liquid was determined by using the action of suppression of aggregation of the platelets as an index and using ADP as the agglutinating agent, only an aqueous physiological solution being used as control.

[5] = test system: Salmonella typhimurium TA 98; assay: Mutagenicity, reversion assay, TA 98; format: cell-based; conditions: 5,000 μg/plate; control 13
Description: as §1, §2

male SHR rats = assay: Effect of aspirin on the hypotensive action; format: in vivo, rat (SHR); conditions: 100 mg/kg p.o., after 6 hours; for Alteration of blood pressure, Case (b): with aspirin 200 mg/kg before and after; for Alteration of blood pressure, Case (a): without aspirin
Description: It is known that PGs are produced from arachidonic acid and the conversion of arachidonic acid into PGG2 is mediated by cyclooxygenase. Also it is known that aspirin inactivates cyclooxygenase, and that the […] of PGs is completely stopped by the administration of aspirin to a mammal.
Accordingly, the following experiment was carried out: To groups of male SHR rats of 30 to 40 weeks after birth, (a) one of the present substance was forcibly administered orally at 100 mg/kg as a solution in distilled water or an aqueous suspension in 2% solution of carboxymethylcellulose or (b) aspirin was forcibly administered orally, before and after one hour of the administration of the present substance, at 200 mg/kg. The blood pressure of the thus treated rats was measured with the time passage.

male Sprague-Dowley rats [6] = assay: Foot-oedema induced by carrageenin and PGE1; format: in vivo; conditions: 1000 mg/kg p.o.; with carrageenin + PGE1; 60 min after carrageenin
Description: The three groups of male Sprague-Dowley rats of total six groups, the respective present substances, Specimens Nos. 4, 7 and 8 were administered forcibly by oral route at a rate of 1000 mg/kg, the other three groups of the same kind of rats being administered nothing at this time.
After 60 min of the administration, 0.1 ml of an aqueous solution of carrageenin (1 mg) and PGE1 (0.1 μg) was injected onto the hind paw of the four groups of the rats including the three groups administered with the present substance. To one group of remaining two groups not administered with the present substance, 0.1 ml of an aqueous solution containing only carrageenin at 1% was injected, and to the other one group not administered with the present substance, an aqueous solution containing only PGE1 was injected.
The volume of the thus swollen foot of the groups of the thus treated rats was measured by the water-displacement method, and the results are shown in Table 17 by the increment of the volume of foot as compared to the volume of foot before the treatment as percentage.

SMILES | Number of revertant colonies TA 100 [1] [number per plate] | PGI2 (thoracic aorta, PGI2) [ng/mg wet tissue] | Blood sugar [2] [mg/100 ml] | Absorbance at 620 nm (dye leakage) (male Sprague-Dowley rats [3]) | production of PGI2 by cuttings of cervical aorta (FIG. 15) [4] | Number of revertant colonies TA 98 [5] [number per plate] | Alteration of blood pressure, Case (b) (male SHR rats) [mmHg] | Alteration of blood pressure, Case (a) (male SHR rats) [mmHg] | Percentage increment of volume of foot (male Sprague-Dowley rats [6]) [%]
O=C(O)c1ccc(NC2O[C@H](CO)[C@@H](O)[C@H](O)[C@@H]2O)cc1 (stereo partly drawn) [Specimen No. 4, Sodium p-aminobenzoate-N--D-mannoside] | 138 | 0.19 ± 0.04 | 133.6 ± 8.3 | 0.155 | raised the production of PGI2 | 5 | -5 | -20 | 32.5
C[C@@H]1OC(Nc2ccc(C(=O)O)cc2)[C@H](O)[C@H](O)[C@H]1O (stereo partly drawn) [Specimen No. 8, Sodium p-aminobenzoate-N--L-rhamnoside] | 73 | 0.18 ± 0.04 | 110.1 ± 5.5 | 0.162 | raised the production of PGI2 | 4 | 0 | -15 | 29.7
O=C(O)c1ccc(NC2OC[C@@H](O)[C@H](O)[C@H]2O)cc1 (stereo partly drawn) [Specimen No. 7, Sodium p-aminobenzoate-N--D-xyloside] | 58 | 0.22 ± 0.02 | 165.0 ± 11.0 | 0.152 | raised the production of PGI2 | 4 | 0 | -20 | 28.2
